US20220226337A1 (Gilead Sciences, Inc., priority 2018, published 2022)

What follows are compounds tested against T1, α4β7 integrin interaction with MadCAM-1 (RPMI8866 cells) (Homo sapiens, UniProt P13612+P26010) (assay: α4β7 Integrin Cell Capture Assay). Details: capture of α4β7 integrin expressing RPMI8866 cells on recombinant MadCAM-1 extracellular domain-coated plate; 0.5 mM MnCl2.
T1 construct: α4β7 integrin expressing cells; endogenous in cells; host or cells: RPMI8866 cells
T1 sequence (P13612 34-1032): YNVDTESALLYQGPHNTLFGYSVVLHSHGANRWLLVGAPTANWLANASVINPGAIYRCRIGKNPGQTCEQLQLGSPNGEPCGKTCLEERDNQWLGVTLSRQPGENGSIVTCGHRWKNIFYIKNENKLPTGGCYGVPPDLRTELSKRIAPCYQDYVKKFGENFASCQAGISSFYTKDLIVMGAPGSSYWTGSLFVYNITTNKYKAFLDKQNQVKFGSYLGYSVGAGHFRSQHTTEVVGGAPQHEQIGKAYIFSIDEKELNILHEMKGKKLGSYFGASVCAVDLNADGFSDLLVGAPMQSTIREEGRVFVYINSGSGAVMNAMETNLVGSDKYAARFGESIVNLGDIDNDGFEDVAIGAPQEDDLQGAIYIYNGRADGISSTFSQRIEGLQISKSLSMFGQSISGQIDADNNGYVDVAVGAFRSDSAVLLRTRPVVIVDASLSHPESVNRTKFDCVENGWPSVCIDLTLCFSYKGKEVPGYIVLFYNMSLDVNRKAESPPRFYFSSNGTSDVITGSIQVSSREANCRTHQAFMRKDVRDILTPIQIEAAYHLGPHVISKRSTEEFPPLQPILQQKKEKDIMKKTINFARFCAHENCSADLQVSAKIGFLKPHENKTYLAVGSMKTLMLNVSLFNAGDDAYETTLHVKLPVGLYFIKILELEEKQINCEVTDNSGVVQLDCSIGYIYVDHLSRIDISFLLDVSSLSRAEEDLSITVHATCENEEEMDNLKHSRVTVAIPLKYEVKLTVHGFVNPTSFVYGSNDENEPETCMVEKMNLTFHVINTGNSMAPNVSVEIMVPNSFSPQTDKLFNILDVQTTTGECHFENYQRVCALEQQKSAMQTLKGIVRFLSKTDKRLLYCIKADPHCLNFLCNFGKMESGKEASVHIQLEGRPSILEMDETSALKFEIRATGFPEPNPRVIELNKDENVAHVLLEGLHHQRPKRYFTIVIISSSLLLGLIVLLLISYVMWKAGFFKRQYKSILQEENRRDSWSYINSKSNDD
T1 sequence (P26010 20-798): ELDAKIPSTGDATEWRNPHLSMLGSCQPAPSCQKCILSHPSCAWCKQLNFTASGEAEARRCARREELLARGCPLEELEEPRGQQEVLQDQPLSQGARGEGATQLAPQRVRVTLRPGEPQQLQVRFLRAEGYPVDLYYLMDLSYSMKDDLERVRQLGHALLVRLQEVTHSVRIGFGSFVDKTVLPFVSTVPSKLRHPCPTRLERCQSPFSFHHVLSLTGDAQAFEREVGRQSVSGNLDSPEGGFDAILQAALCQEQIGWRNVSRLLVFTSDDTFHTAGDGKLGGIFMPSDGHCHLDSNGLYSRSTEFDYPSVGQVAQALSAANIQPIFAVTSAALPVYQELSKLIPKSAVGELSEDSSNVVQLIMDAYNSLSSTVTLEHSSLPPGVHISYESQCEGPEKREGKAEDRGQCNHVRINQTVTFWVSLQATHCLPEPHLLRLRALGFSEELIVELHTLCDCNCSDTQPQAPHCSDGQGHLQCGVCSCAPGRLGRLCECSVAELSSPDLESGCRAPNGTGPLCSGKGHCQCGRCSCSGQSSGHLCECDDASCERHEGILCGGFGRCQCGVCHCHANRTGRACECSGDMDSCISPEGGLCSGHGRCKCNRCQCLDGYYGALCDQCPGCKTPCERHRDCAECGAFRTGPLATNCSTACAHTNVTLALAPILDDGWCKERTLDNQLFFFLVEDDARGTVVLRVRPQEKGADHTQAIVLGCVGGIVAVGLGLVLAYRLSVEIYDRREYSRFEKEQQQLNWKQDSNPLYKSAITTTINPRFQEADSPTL
Type: cell-based
Method in brief: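 RPMI8866 cells (0.5×10^6 cells/mL in DMEM + 0.5% FBS + 0.5 mM MnCl2) preincubated with compound 1 h at 37 °C, then allowed to adhere 30 min at 37 °C to plates coated with MAdCAM-1 extracellular domain (1.0 μg/mL). Bound cells fixed with 2% glutaraldehyde, Hoechst-stained, imaged and counted; EC50 from cell count versus concentration.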

With Cc1c(-c2ccc(C[C@H](NC(=O)c3c(F)cccc3F)C(=O)O)c3c2OCCC3)c(=O)n(C)c2ccccc12 (single isomer, unassigned) [Example 59] as the compound, how does the EC50 read?
The EC50 was 1.5 nM.

Cc1ncc(-c2ccc(C[C@H](NC(=O)c3c(F)cc(N4CCOC[C@@H]4C(F)(F)F)cc3F)C(=O)O)c3c2OCCO3)c(=O)n1C [Example 177] was tested. Which EC50 did it give?
The EC50 was 0.593 nM.

CC[C@@H](Nc1cc(F)c(C(=O)N[C@@H](Cc2ccc(-c3c(OC)cc(C)n(C)c3=O)c3c2COC3)C(=O)O)c(F)c1)C(F)(F)F [Example 23, (S)-2-(2,6-difluoro-4-(((R)-1,1,1-trifluorobutan-2-yl)amino)benzamido)-3-(7-(4-methoxy-1,6-dimethyl-2-oxo-1,2-dihydropyridin-3-yl)-1,3-dihydroisobenzofuran-4-yl) propanoic acid] was tested. Which EC50 did it give?
Its EC50 is 0.692 nM.

Which EC50 does the source give for Cc1cc(N2CCOC[C@@H]2C(F)(F)F)cc(F)c1C(=O)N[C@@H](Cc1ccc(-c2c(C)cc(C)n(C)c2=O)c2c1CCCO2)C(=O)O [Example 160] here?
The EC50 was 0.189 nM.

For C=C1COCCN(c2cc(F)c(C(=O)N[C@@H](Cc3ccc(-c4nc(C)c(C)n(C)c4=O)c4c3CCCO4)C(=O)O)c(F)c2)C1 [Example 158], which EC50 is on record?
Its EC50 is 0.502 nM.

With CC[C@@H](Nc1cc(F)c(C(=O)N[C@@H](Cc2ccc(-c3cc4ccccc4n(C)c3=O)c3c2CCCO3)C(=O)O)c(F)c1)C(F)(F)F [Example 31, (S)-2-(2,6-difluoro-4-(((R)-1,1,1-trifluorobutan-2-yl)amino)benzamido)-3-(8-(1-methyl-2-oxo-1,2-dihydroquinolin-3-yl)chroman-5-yl)propanoic acid] as the compound, how does the EC50 read?
Its EC50 is 8.81 nM.

Which EC50 does the source give for Cc1c(-c2ccc(C[C@H](NC(=O)c3c(F)cccc3F)C(=O)O)c3c2OCCC3)c(=O)n(C)c2ccccc12 (single isomer, unassigned) [Example 58] here?
Its EC50 is 2.56 nM.

Which EC50 does the source give for Cc1c(-c2ccc(C[C@H](NC(=O)c3c(Cl)cccc3Cl)C(=O)O)c3c2OCCC3)c(=O)n(C)c2ccccc12 [Example 60, (S)-2-(2,6-dichlorobenzamido)-3-(8-(1,4-dimethyl-2-oxo-1,2-dihydroquinolin-3-yl)chroman-5-yl)propanoic acid] here?
Its EC50 is 4.12 nM.

Which EC50 does the source give for Cc1cc(N2CCOC[C@@H]2C(F)(F)F)cc(F)c1C(=O)N[C@@H](Cc1ccc(-c2nc(C)c(C)n(C)c2=O)c2c1OCCO2)C(=O)O [Example 179] here?
Its EC50 is 0.267 nM.

How did the EC50 turn out when Cc1c(-c2ccc(C[C@H](NC(=O)c3c(Cl)cccc3Cl)C(=O)O)c3c2OCCC3)c(=O)n(C)c2ccccc12 (single isomer, unassigned) [Example 62] was run?
The EC50 was 3.3 nM.

With Cc1cc(N2CCCC[C@@H]2C(F)(F)F)cc(F)c1C(=O)N[C@@H](Cc1ccc(-c2nc(C)c(C)n(C)c2=O)c2c1CCCO2)C(=O)O [Example 149] as the compound, how does the EC50 read?
The EC50 was 0.715 nM.

Which EC50 does the source give for CC[C@@H](Nc1cc(F)c(C(=O)N[C@@H](Cc2ccc(-c3c(C)nc(C)n(C)c3=O)c3c2CCCO3)C(=O)O)c(F)c1F)C(F)(F)F [Example 126] here?
The EC50 was 0.379 nM.

With Cc1cc(C)n(C)c(=O)c1-c1ccc(C[C@H](NC(=O)c2c(F)cc(N3CCOC[C@@H]3C(F)(F)F)cc2F)C(=O)O)c2c1CCC2 [Example 195] as the compound, how does the EC50 read?
The EC50 was 0.198 nM.

Which EC50 does the source give for CC[C@@H](Nc1cc(F)c(C(=O)N[C@@H](Cc2ccc(-c3c(C(F)(F)F)cc(C)n(C)c3=O)c3c2COC3)C(=O)O)c(F)c1)C(F)(F)F [Example 13, (S)-2-(2,6-difluoro-4-(((R)-1,1,1-trifluorobutan-2-yl)amino)benzamido)-3-(7-(1,6-dimethyl-2-oxo-4-(trifluoromethyl)-1,2-dihydropyridin-3-yl)-1,3-dihydroisobenzofuran-4-yl)propanoic acid] here?
Its EC50 is 0.388 nM.

CC[C@@H](Nc1cc(F)c(C(=O)N[C@@H](Cc2ccc(-c3ncc(C)c(C)n3)c3c2COC3)C(=O)O)c(F)c1)C(F)(F)F [Example 24, (S)-2-(2,6-difluoro-4-(((R)-1,1,1-trifluorobutan-2-yl)amino)benzamido)-3-(7-(4,5-dimethylpyrimidin-2-yl)-1,3-dihydroisobenzofuran-4-yl)propanoic acid] was tested. Which EC50 did it give?
The EC50 was 100 nM.

Which EC50 does the source give for Cc1cc(N2CCOC[C@@H]2C(F)(F)F)cc(F)c1C(=O)N[C@@H](Cc1ccc(-c2c(C(F)(F)F)cc(C)n(C)c2=O)c2c1CCC2)C(=O)O [Example 200] here?
The EC50 was 0.083 nM.

For O=C(N[C@@H](Cc1ccc(-c2cc(F)c(F)cc2OC2CC2)c2c1CCCO2)C(=O)O)c1c(F)cccc1F [Example 68, (S)-3-(8-(2-cyclopropoxy-4,5-difluorophenyl)chroman-5-yl)-2-(2,6-difluorobenzamido)propanoic acid], which EC50 is on record?
Its EC50 is 56.5 nM.

With O=C(N[C@@H](Cc1ccc(-c2c(Cl)cc(F)cc2Cl)c2c1CCCO2)C(=O)O)c1c(Cl)cccc1Cl [Example 75, (S)-3-(8-(2,6-dichloro-4-fluorophenyl)chroman-5-yl)-2-(2,6-dichlorobenzamido)propanoic acid] as the compound, how does the EC50 read?
Its EC50 is 67.7 nM.

Which EC50 does the source give for Cc1cc(N2CCOC[C@@H]2C(F)(F)F)cc(F)c1C(=O)N[C@@H](Cc1ccc(-c2cnc(C)n(C)c2=O)c2c1CCCO2)C(=O)O [Example 128] here?
Its EC50 is 0.446 nM.

Cc1c(-c2ccc(C[C@H](NC(=O)c3c(F)cc(N4CCOC[C@@H]4C(F)(F)F)cc3F)C(=O)O)c3c2OCCO3)c(=O)n(C)c(=O)n1C (single isomer, unassigned) [Example 8] was tested. Which EC50 did it give?
Its EC50 is 0.301 nM.

Which EC50 does the source give for CCOCc1cc(OC)c(-c2ccc(C[C@H](NC(=O)c3c(F)cccc3F)C(=O)O)c3c2OCCC3)c(OC)c1 [Example 71, (S)-2-(2,6-difluorobenzamido)-3-(8-(4-(ethoxymethyl)-2,6-dimethoxyphenyl)chroman-5-yl)propanoic acid] here?
Its EC50 is 9.18 nM.

With Cc1cc(C)n(C)c(=O)c1-c1ccc(C[C@H](NC(=O)c2c(F)cc(N3CCOC[C@@H]3C(F)(F)F)cc2Cl)C(=O)O)c2c1OCCC2 [Example 159] as the compound, how does the EC50 read?
The EC50 was 0.226 nM.

For Cn1c(=O)c(-c2ccc(C[C@H](NC(=O)c3c(F)cccc3F)C(=O)O)c3c2OCCO3)cc2ccccc21 [Example 1, (S)-2-(2,6-difluorobenzamido)-3-(8-(1-methyl-2-oxo-1,2-dihydroquinolin-3-yl)-2,3-dihydrobenzo[b][1,4]dioxin-5-yl)propanoic acid], which EC50 is on record?
Its EC50 is 11 nM.

How did the EC50 turn out when Cc1cc(-c2ccc(C[C@H](NC(=O)c3c(F)cc(N4CCOC[C@@H]4C(F)(F)F)cc3F)C(=O)O)c3c2OCCC3)c(=O)n(C)n1 [Example 148] was run?
The EC50 was 0.76 nM.

O=C(N[C@@H](Cc1ccc(-c2cc(F)c(F)cc2OC2CC2)c2c1CCCO2)C(=O)O)c1c(Cl)cccc1Cl [Example 64, (S)-3-(8-(2-cyclopropoxy-4,5-difluorophenyl)chroman-5-yl)-2-(2,6-dichlorobenzamido)propanoic acid] was tested. Which EC50 did it give?
The EC50 was 110 nM.

Which EC50 does the source give for Cc1cc(N2CCOC[C@@H]2C(F)(F)F)cc(F)c1C(=O)N[C@@H](Cc1ccc(-c2cnc(C)n(C)c2=O)c2c1OCCO2)C(=O)O [Example 178] here?
Its EC50 is 0.348 nM.

Which EC50 does the source give for Cc1cc(C(F)(F)F)c(-c2ccc(C[C@H](NC(=O)c3c(F)cc(N4CCOC[C@@H]4C(F)(F)F)cc3F)C(=O)O)c3c2CCN(C)C3)c(=O)n1C [Example 203] here?
The EC50 was 0.36 nM.

Cn1c(=O)c(-c2ccc(C[C@H](NC(=O)c3c(F)cc(N4CCOC[C@@H]4C(F)(F)F)cc3F)C(=O)O)c3c2OCCC3)cc2cnccc21 [Example 171] was tested. Which EC50 did it give?
Its EC50 is 0.201 nM.
